Results taken from patent publication US7951374B2, “Methods for inhibiting STAT3 signaling in immune cells” (University of South Florida, priority 2004, dated 2011).

Columns and labels:
[1] = system: MB49 tumor cells; test: CPA-7-induced tumor-cell apoptosis in vitro by annexin V staining; type: cell-based, mouse; conditions: annexin V staining (FIG. 31)
Description: Cell lines. Mouse B16 melanoma, YAC-1 and P815 target cells were purchased from American Type Culture Collection. MB49 bladder carcinoma and C4 mouse melanoma lines were gifts from T. Ratliff (University of Iowa) and J. Fidler (M.D. Anderson Cancer Center), respectively.
Flow cytometry. Single-cell suspensions were prepared by mechanic dispersion of spleen or tumor tissues. 1×10^6 freshly prepared cells suspended in a mixture of PBS, 2% FCS and 0.1% (wt/vol) sodium azide were preincubated with FcγIII/IIR-specific antibody to block nonspecific binding and cells were stained with different combinations of fluorochrome-coupled antibodies to CD11c, I-A^b (MHC class II), CD86, CD11b, Gr1, CD49b, CD3, CD25 or Lag-3, or with annexin V (BD Biosciences). Fluorescence data was collected on FACSCalibur (Beckton Dickinson) and analyzed using FlowJo software (Tree Star).
The effects of blocking Stat3 in immune cells with CPA-7, a small-molecule Stat3 inhibitor, were assessed. For these experiments, both B16 and MB49 tumor cells were used. In contrast to B16, MB49 tumor cells are insensitive to CPA-7-induced tumor-cell apoptosis, as determined by annexin V staining.

[2] = system: MB49 tumors; test: Growth of established MB49 tumors in mice treated with CPA-7; type: in vivo, mouse
Description: For CPA-7 treatment, MB49 tumors were implanted into male C57BL/6 mice and tumors were allowed to grow until 5-7 mm in diameter. Mice were given intravenous injections of either vehicle (10% DMSO/PBS) or 5 mg/kg CPA-7 once every 3 days.
Mice with MB49 tumors (about 6 mm in diameter) received intravenous injections of either vehicle or CPA-7.
Mice with established MB49 tumors were treated with vehicle or CPA-7 in combination with control or asialo GM1-specific antibody.

[3] = system: MB49, B16 or C4 tumor cells; test: Lung tumor nodules after intravenous tumor cell injection and CPA-7 treatment; type: in vivo, mouse; conditions: 5×10^4 MB49, B16 or C4 cells i.v., CPA-7 5 mg/kg twice weekly, day 21 (FIG. 38)
Description: Mice were injected intravenously with 5×10^4 MB49, B16 or C4 tumor cells, followed by twice weekly treatment with CPA-7 (5 mg/kg) or vehicle (10% DMSO). Lung colonies were enumerated 21 days later, when control mice became moribund.
To visualize lung tumor nodules, lungs were fixed and bleached in Fekete's solution with or without India ink as a counterstain.

[4] = system: YAC-1 cells; test: 51Cr-release assay of NK cell cytotoxicity from tumor-bearing mice treated with CPA-7; type: in vivo, mouse; conditions: NK cells from tumor-bearing mice treated with CPA-7, YAC-1 targets (FIG. 35)
Description: Cytotoxicity assays. NK cell and neutrophil cytotoxicity assays were performed as described by Wei, S. et al., J. Exp. Med. 187, 1753-1765 (1998), which is incorporated herein by reference. Briefly, a 4-hour ^51Cr-release assay was carried out using YAC-1 cells as targets for enriched NK cells or FcγR^+ mouse mastocytoma (P815) cells as targets for enriched neutrophils. Cytotoxicity of CPA-7-treated NK cells from tumor-bearing hosts was assessed using a standard ^51Cr-release assay with YAC-1 cells as targets, as described in Example 1.

[5] = Immunohistochemical analysis of colon sections for autoimmune pathology; type: in vivo, mouse; conditions: tumor-bearing Stat3+/+ and Stat3−/− mice, CPA-7 every third day for three weeks (FIG. 30)
Description: Transverse colon sections were stained with hematoxylin-eosin and antibodies to CD4, CD8 or CD11b. Staining with rat IgG was used as a negative control.
Colons from tumor free Stat3^−/− mice were evaluated for autoimmune effects at 20 weeks after Stat3 deletion by immunohistochemical analysis. […] In contrast, there was virtually no evidence of systemic autoimmunity at 4 weeks after induced depletion in tumor-bearing Stat3^+/+ and Stat3^−/− mice (FIG. 29).

[6] = system: phosphorylated Stat1; test: Stat1P levels in tumor-infiltrating DCs after intravenous CPA-7, intracellular flow cytometry; type: in vivo, mouse; conditions: 24 hours after intravenous injection (FIG. 33)
Description: (§1) Isolation of tumor-infiltrating immune cell subsets and intracellular staining of signaling molecules. Freshly excised tumor tissues were gently minced into small pieces and incubated in 400 U/ml of collagenase D (Roche) solution for 30 minutes at 37° C. Cell suspensions were filtered through a mesh filter for isolation of various immune cell subsets using specific antibodies in combination with EASYSEP magnetic nanoparticles (StemCell Technologies, Canada). Isolated tumor-infiltrating cells were fixed in paraformaldehyde and permeated in methanol before intracellular staining with antibodies to phosphotyrosine-Stat3 and Stat1 (BD Biosciences) or with Foxp3-specific antibody (eBiosciences). Fluorescence data was collected on FACSCalibur (Beckton Dickinson) and analyzed using FlowJo software (Tree Star).
(§2) To further characterize activation of CPA-7 treated immune cells, Phospho-Stat3 (Stat3P) levels in tumor-infiltrating DCs were assessed 24 hours after intravenous injection with vehicle or CPA-7 and compared to splenic CD11c^+ cells from tumor-free Stat3^+/+ mice. […] Also shown in FIG. 33, CPA-7 treated tumor-infiltrating DCs have increased phosphorylated Stat1.

[7] = target: T1, Phospho-Stat3 (Stat3P) (Mus musculus, UniProt P42227); test: Phospho-Stat3 levels in MB49 tumor-infiltrating DCs after intravenous CPA-7, intracellular flow cytometry; type: in vivo; conditions: 24 hours after intravenous injection, compared to vehicle-treated mice (FIG. 33)
T1 construct: from tissue; host or cells: tumor-infiltrating dendritic cells from MB49 tumors of mice
Description: as §1, §2

[8] = target: T2, Stat3 (Mus musculus, UniProt P42227); test: EMSA of Stat DNA binding in DC2.4 dendritic cells preincubated with CPA-7 (Stat3); type: cell-based; conditions: DC2.4 cells, 10 μm CPA-7 overnight, then 20 ng/ml IL-6 for 20 minutes, EMSA (FIG. 32)
T2 construct: endogenous in cells; host or cells: mouse DC2.4 dendritic cells
Description: Mouse DC2.4 dendritic cells were preincubated with 10 μm CPA-7 overnight and then stimulated for 20 minutes with 20 ng/ml IL-6 (activator of both Stat3 and Stat1), 500 U/ml IFN-γ (activator of […]) or 20 ng/ml GM-CSF (activator of Stat5). After cell lysis, nuclear extracts were prepared and EMSA was conducted to detect DNA binding.

T1 sequence (P42227 whole entry): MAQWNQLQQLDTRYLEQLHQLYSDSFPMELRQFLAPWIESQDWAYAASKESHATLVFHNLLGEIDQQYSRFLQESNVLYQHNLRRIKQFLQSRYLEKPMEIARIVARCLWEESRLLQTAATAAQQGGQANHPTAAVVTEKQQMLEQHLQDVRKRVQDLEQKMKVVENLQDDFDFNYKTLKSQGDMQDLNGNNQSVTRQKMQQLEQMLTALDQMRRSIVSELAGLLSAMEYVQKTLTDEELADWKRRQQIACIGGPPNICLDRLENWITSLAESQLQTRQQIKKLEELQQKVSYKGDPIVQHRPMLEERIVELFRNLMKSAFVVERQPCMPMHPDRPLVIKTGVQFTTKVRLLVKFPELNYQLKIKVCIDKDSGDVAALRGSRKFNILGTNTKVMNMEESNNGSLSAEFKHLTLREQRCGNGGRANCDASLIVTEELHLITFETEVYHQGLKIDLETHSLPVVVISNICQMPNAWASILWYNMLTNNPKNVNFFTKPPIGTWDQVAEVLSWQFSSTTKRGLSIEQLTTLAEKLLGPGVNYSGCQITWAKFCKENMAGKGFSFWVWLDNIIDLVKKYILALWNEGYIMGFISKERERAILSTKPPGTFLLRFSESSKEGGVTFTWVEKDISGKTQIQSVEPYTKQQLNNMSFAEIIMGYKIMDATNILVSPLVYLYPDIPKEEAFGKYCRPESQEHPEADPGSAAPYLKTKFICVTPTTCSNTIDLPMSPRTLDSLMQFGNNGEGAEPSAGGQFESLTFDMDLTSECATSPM
T2 sequence (P42227 whole entry): as above

[NH2][Pt]([NH2])([Cl])([Cl])([Cl])[N+](=O)[O-] [CPA-7]
sensitivity to CPA-7-induced tumor-cell apoptosis [1]: insensitive
growth of established tumors ([2]; MB49 tumors about 6 mm in diameter, intravenous CPA-7 5 mg/kg once every 3 days (FIG. 34)): inhibits the growth of established tumors
CPA-7-induced tumor growth inhibition in the absence of CD4+ and CD8+ T cells ([2]; MB49 tumors, antibodies to CD4 and CD8 (FIG. 34)): abrogated
in vivo antitumor effects of CPA-7 treatment with NK depletion ([2]; established MB49 tumors, asialo GM1-specific antibody (FIG. 36)): partially abrogates
lung tumor nodules [3]: significantly reduced or completely abrogated
NK cell activity (cytotoxicity) [4]: increased
pathologic changes in colons [5]: lack of pathologic changes
phosphorylated Stat1 in tumor-infiltrating DCs [6]: increased
phosphorylated Stat3 in tumor-infiltrating DCs [7]: considerably reduced
inhibition of Stat3 DNA binding [8]: inhibits Stat3
